Data reported in patent US10532066B2, “Surfactant lipids, compositions thereof, and uses thereof” (National Jewish Health, priority 2007, dated 2020).

Legend:
[1] = system: U937 macrophages; test: TNFα in U937 macrophages stimulated with smooth LPS, with SP-A and PtdGro; format: cell-based; details: 100 ng/ml smooth LPS, 6 hours, SP-A 10 μg/ml, lipid 20 μg/ml
Description: U937 macrophages were stimulated with 100 ng/ml smooth LPS for 6 hours. The culture medium was harvested and assayed for the presence of TNFα by ELISA. Control cultures received no additions. SP-A was added as indicated at 10 μg/ml. Saturated-(16:0/16:0)-PtdGro was added at 20 μg/ml. Unsaturated-(18:1/18:1)-PtdGro was added at 20 μg/ml.

[2] = system: BALB/c mice; test: Sepsis model: intravenous LPS, intratracheal phospholipids; format: in vivo, mouse; details: LPS 50 μg i.v., phospholipids 50 μg intratracheal, 3 h
Description: FIG. 10. Anionic phospholipids modulate lung inflammation induced by intravenously administered LPS. Phospholipids were dried under nitrogen and hydrated, and liposomes were formed using a Liposofast™. […] At the same time, LPS (50 μg) in 200 μl of PBS was intravenously administered to mice.
Next, the effect of phospholipids were examined in a sepsis model in mice. LPS (50 μG/200 μl) was intravenously administered to mice via the tail vein and phospholipids were administered intratracheally at the same time. Three hours after stimulation, BALF was collected (FIG. 10).

[3] = system: TLR8; test: TLR agonist IL-8 production in primary human neutrophils, TLR8; format: cell-based; details: polyU, 5-24 h
Description: In this experiment, multiple TLRs were stimulated with defined TLR agonists for 5-24 h as indicated, and the IL-8 production was measured. In each case the maximal stimulation by agonist is set at 100% and the antagonism by POPG is expressed as the relative % response. The Controls consist of no treatment, or treatment with POPG, in the absence of agonist as indicated. The agonists for the TLRs consist of Pam3Cys for TLR1/2, double stranded RNA (poly IC) for TLR3, Gram-negative lipopolysaccharide (LPS) for TLR4, and single stranded RNA (polyU) for TLR7/8.

[4] = system: Respiratory Syncytial Virus (RSV); test: RSV-induced cytokine production in BEAS2B cells; format: cell-based
[5] = system: Respiratory Syncytial Virus (RSV); test: Cytopathic effects of RSV upon BEAS2B cells (photomicrography); format: cell-based
Description: (§1) Monolayers of BEAS2B cells were infected with RSV at a multiplicity of 3 for 72 h. Infections were performed on cells in either the absence or the presence of POPG (200 ug/ml). The cell monolayers were photographed at a magnification of 200×. Controls consisted of no viral challenge in either the presence or absence of POPG as indicated.
(§2) Monolayers of BEAS2B cells were infected with RSV at a multiplicity of 3 for 72 h. Infections were performed on cells in either the absence (b) or the presence (c,f) of POPG (200 ug/ml) and POPC (200 ug/ml) as indicated. Cells were photographed at a magnification of 200×. Controls (a,d,e) consisted of cell layers either not exposed to virus or exposed to POPG, and POPC in the absence of virus as indicated.
Monolayers of BEAS2B cells were infected with RSV at a multiplicity of 0.5-1, in either the presence or absence of 200 ug/ml POPG, or 200 ug/ml POPC, as indicated.
Monolayers of BEAS2B cells were either uninfected (CONL) or challenged with RSV at a multiplicity of 0.5/cell (RSV). Where indicated in the FIG. 44, RSV challenged cells were also treated with POPC (200 ug/ml) or POPG (200 ug/ml) liposomes; or POPG nanodiscs (nanoPOPG) at concentrations ranging from 100-300 ug/ml. Selected panels and fields are also shown at 400× magnification in FIG. 45.
Where indicated in FIG. 46, RSV challenged cells were also treated with nanodisc forms of dipalmitoyl-phosphatidylcholine (nanoDPPC), palmitoyl-oleoyl-phosphatidylcholine (nanoPOPC), or dioleoyl-phosphatidylcholine (nanoDOPC), dipalmitoyl-phosphatidylglycerol (nanoDPPG), dimyristoyl-phosphatidylglycerol (nanoDMPG), or dioleoyl-phosphatidylglycerol (nanoDOPG). At 72 h after infection, the cultures were examined by photomicrography at a magnification of 200×.

[6] = system: Respiratory Syncytial Virus (RSV); test: Cytopathic effects of RSV upon NHBE cells (photomicrography); format: cell-based
Description: as §1, with “NHBE” for “BEAS2B”
as §2, with “NHBE” for “BEAS2B”
Monolayers of normal human bronchial epithelial cells were infected with RSV at a multiplicity of 0.5-1, in either the presence or absence of 200 ug/ml POPG, or 200 ug/ml POPC, as indicated.

[7] = system: RSV; test: RSV binding to solid phase phospholipids (ELISA); parameters: species or system Respiratory Syncytial Virus (RSV); details: 10 ug lipid per well, varying RSV
Description: Solid phase phospholipids (10 ug) were adsorbed to microtiter wells by evaporation of ethanol solvent. The wells were blocked with albumin and exposed to varying concentrations of RSV as shown in the left panel of FIG. 37. The wells were washed 3 times with phosphate buffered saline and the bound virus was detected by ELISA using polyclonal rabbit anti-RSV.

[8] = system: RSV; test: RSV infection of mice; format: in vivo; details: 10^7 RSV with 200 ug/ml POPG, three days
Description: Groups of 8 mice were inoculated with 10^7 RSV in either the absence (RSV), or presence of 200 ug/ml POPG (RSV+POPG). Control experiments consisted of UV inactivated RSV (URV), or saline treatment (CON), or POPG treatment without virus (POPG). Three days after the inoculations, the animals were killed and the lungs harvested and processed for viral content by quantitative plaque assay (left panel of FIG. 41), and histopathology (right panel of FIG. 41)

[9] = system: influenza-A virus H3N2; test: Influenza-A cytopathic effects and cell death in BEAS2B cells; format: cell-based; details: 72 h, 200 ug/ml POPG
[10] = RSV multiplicity 3, 48 h, lipid 200 ug/ml
[11] = multiplicity 0.5-1, 72 h, 200 ug/ml
[12] = multiplicity 3, 72 h, lipid 200 ug/ml

| SMILES | blocking of the anti-inflammatory effects of SP-A (TNFα) [1] | KC levels in BALF [2] | MIP-2 levels in BALF [2] | TNF-α secretion in BALF [2] | infiltration of neutrophils in BALF [2] | activity of TLR8 (IL-8 production) [3] | IL-8 production, varying concentrations of POPG ([4]; RSV multiplicity 0.5, 48 hours) | inflammatory cytokine production (IL-6, IL-8) ([4]; RSV multiplicity 0.5-1, 48 h, 200 ug/ml) | IL-6 production [4, 10] | IL-8 production [4, 10] | killing of cells by RSV [5, 11] | cytopathic effects of RSV [5, 12] | killing of cells by RSV [6, 11] | cytopathic effects of RSV [6, 12] | binding of RSV to solid phase phospholipid [7] | RSV infection in vivo (lung viral content, histopathology) [8] | cell death induced by influenza A infection [9] |
| --- | --- | --- | --- | --- | --- | --- | --- | --- | --- | --- | --- | --- | --- | --- | --- | --- | --- |
| CCCCCCCCCCCCCCCC(=O)OCC(COP(=O)(O)OCC(O)CO)OC(=O)CCCCCCCCCCCCCCC (centres unmarked) [DPPG, dipalmitoyl-phosphatidylglycerol, reference compound] | does not block |  |  |  |  |  |  |  |  |  |  |  |  |  |  |  |  |
| CCCCCCCC/C=C\CCCCCCCC(=O)O[C@H](COC(=O)CCCCCCCCCCCCCCC)COP(=O)(O)OCC(O)CO (some centres unmarked) [POPG, palmitoyl-oleoyl-phosphatidylglycerol] |  | significantly attenuated | significantly attenuated | significantly inhibited | effectively inhibited | inhibits | inhibits IL-8 production from epithelial cells in a concentration-dependent manner | suppresses | inhibits | inhibits | prevents the killing | prevents the cytopathic effects | prevents the killing | prevents the cytopathic effects | binds RSV with high affinity and specificity | suppresses | prevents cell death |
